# According to patent US20260242419A1, “A CYCLIC PEPTIDE FOR TRAPPING INTERLEUKIN-1 BETA” (Merck Sharp & Dohme LLC, priority 2023, published 2026):
# Starred links: 1 amine or outer side, 2 acyl side, 3 side chain; linkers in the order of their positions; H or OH if unused. Non-standard residues stand in square brackets, D forms with d. Residues, ends and D or L forms follow the SMILES beside them. dPro(4R-(4-pyridylmethyl)) = O=C(O)[C@H]1C[C@@H](Cc2ccncc2)CN1; X17 = CN(C)C(=O)c1ccc(-c2ccc(C[C@H](N[*:1])C(=O)[*:2])cc2)cc1; Trp(βS-Me,4-F) = C[C@@H](c1c[nH]c2cccc(F)c12)[C@H](N)C(=O)O; Bip(4'-COOH) = N[C@@H](Cc1ccc(-c2ccc(C(=O)O)cc2)cc1)C(=O)O; X37 = CC(=O)N1CCN(c2ccc(C[C@H](N[*:1])C(=O)[*:2])cn2)CC1; dPro(4R-Bzl(4-F)) = O=C(O)[C@H]1C[C@@H](Cc2ccc(F)cc2)CN1; X4 = O=C([C@H]1[C@@H](Cc2ccncc2)CCN1[*:1])[*:2]; Ala(pyrimidin-5-yl) = N[C@@H](Cc1cncnc1)C(=O)O; Phe(4-COOH) = N[C@@H](Cc1ccc(C(=O)O)cc1)C(=O)O; X25 = C[N+](C)(C)CCC[C@H](N[*:1])C(=O)[*:2]; Pro(cis-4-F) = O=C(O)[C@@H]1C[C@H](F)CN1; hTyr = N[C@@H](CCc1ccc(O)cc1)C(=O)O; d(αMeD) = C[C@@](N)(CC(=O)O)C(=O)O; 3Pal = N[C@@H](Cc1cccnc1)C(=O)O; 4Pal = N[C@@H](Cc1ccncc1)C(=O)O; d(αMeS) = C[C@@](N)(CO)C(=O)O; Dab = NCC[C@H](N)C(=O)O; Aib = CC(C)(N)C(=O)O
# Target: T1, IL-1β (Homo sapiens, UniProt P01584)
# T1 construct: purchased BioLegend 579404
# T1 sequence (P01584 117-269): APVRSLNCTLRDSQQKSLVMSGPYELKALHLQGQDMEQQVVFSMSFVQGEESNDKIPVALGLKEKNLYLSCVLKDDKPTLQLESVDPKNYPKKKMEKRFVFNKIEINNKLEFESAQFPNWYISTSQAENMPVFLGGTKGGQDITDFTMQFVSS
# Assay: IL-6 assay in MRC5 cells: inhibition of IL-1β induced IL-6 secretion (AlphaLISA)
# Format: cell-based
# Settings: inhibition of IL-1β induced IL-6 secretion in MRC5 cells; compound pre-incubated 1 hour with recombinant human IL-1β; read-out: MRC5 IC50
# Summary of the method: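 Compound was pre-incubated 1 h at ambient temperature with recombinant human IL-1β at 2λ EC80 before adding human lung fibroblast MRC5 cells (3000/well) in EMEM with 0.025% BSA. After overnight culture at 37 °C, 5% CO2, secreted IL-6 in conditioned medium was measured by AlphaLISA; IC50 from 4-parameter logistic fits.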
row,IC50 [nM],SMILES
1,0.022,"C[C@@H](c1c[nH]c2cccc(F)c12)[C@@H]1NC(=O)[C@@H]2C[C@H](F)CN2C(=O)CNC(=O)[C@H](Cc2ccc(C(=O)O)cc2)NC(=O)[C@H](Cc2ccncc2)NC(=O)[C@H](Cc2ccc(-c3ccc(C(=O)O)cc3)cc2)NC(=O)[C@H]2C[C@@H](Cc3ccc(F)cc3)CN2C(=O)CNC(=O)[C@H](CCN)NC(=O)[C@H](CCC(N)=O)NC(=O)[C@H](CCC[N+](C)(C)C)NC(=O)C(C)(C)NC(=O)[C@H](Cc2c[nH]c3ccccc23)NC(=O)[C@H](CO)NC(=O)C(C)(C)NC1=O [Example 297] (cyclo([Bip(4'-COOH)][4Pal][Phe(4-COOH)]G[Pro(cis-4-F)][Trp(βS-Me,4-F)][Aib]SW[Aib][X25]Q[Dab]G[dPro(4R-Bzl(4-F))]))"

# Same assay, conditions: inhibition of IL-1β induced IL-6 secretion in MRC5 cells; read-out: MRC5 IC50
row,IC50 [nM],SMILES
1,0.032,"C[C@@H](c1c[nH]c2cccc(F)c12)[C@@H]1NC(=O)[C@@H]2C[C@H](F)CN2C(=O)CNC(=O)[C@H](Cc2ccc(C(=O)O)cc2)NC(=O)[C@H](Cc2ccncc2)NC(=O)[C@H](Cc2ccc(-c3ccc(C(=O)O)cc3)cc2)NC(=O)[C@H]2C[C@@H](Cc3ccc(F)cc3)CN2C(=O)CNC(=O)[C@H](CO)NC(=O)[C@H](CCC(N)=O)NC(=O)[C@H](Cc2cccnc2)NC(=O)C(C)(C)NC(=O)[C@H](Cc2c[nH]c3ccccc23)NC(=O)[C@H](CCC(=O)O)NC(=O)C(C)(C)NC1=O [Example 34] (cyclo([Bip(4'-COOH)][4Pal][Phe(4-COOH)]G[Pro(cis-4-F)][Trp(βS-Me,4-F)][Aib]EW[Aib][3Pal]QSG[dPro(4R-Bzl(4-F))]))"
2,0.063,"CC(=O)N1CCN(c2ccc(C[C@@H]3NC(=O)[C@H]4C[C@@H](Cc5ccc(F)cc5)CN4C(=O)CNC(=O)[C@H](CCN)NC(=O)[C@H](CCC(N)=O)NC(=O)[C@H](Cc4cncnc4)NC(=O)C(C)(C)NC(=O)[C@H](Cc4c[nH]c5ccccc45)NC(=O)[C@H](CCC(=O)O)NC(=O)C(C)(C)NC(=O)[C@H]([C@@H](C)c4c[nH]c5cccc(F)c45)NC(=O)[C@@H]4C[C@H](F)CN4C(=O)CNC(=O)[C@H](Cc4ccc(C(=O)O)cc4)NC(=O)[C@H](Cc4ccncc4)NC3=O)cn2)CC1 [Example 39] (cyclo([X37][4Pal][Phe(4-COOH)]G[Pro(cis-4-F)][Trp(βS-Me,4-F)][Aib]EW[Aib][Ala(pyrimidin-5-yl)]Q[Dab]G[dPro(4R-Bzl(4-F))]))"

# Continued, compound first:
row,SMILES,IC50 [nM]
1,"C[C@@H](c1c[nH]c2cccc(F)c12)[C@@H]1NC(=O)[C@@H]2C[C@H](F)CN2C(=O)CNC(=O)[C@H](Cc2ccc(C(=O)O)cc2)NC(=O)[C@H](Cc2ccncc2)NC(=O)[C@H](Cc2ccc(-c3ccc(C(=O)O)cc3)cc2)NC(=O)[C@H]2[C@@H](Cc3ccncc3)CCN2C(=O)CNC(=O)[C@H](CCN)NC(=O)[C@H](CCC(N)=O)NC(=O)[C@H](CCc2ccc(O)cc2)NC(=O)C(C)(C)NC(=O)[C@H](Cc2c[nH]c3ccccc23)NC(=O)[C@H](CO)NC(=O)C(C)(C)NC1=O [Example 220] (cyclo([Bip(4'-COOH)][4Pal][Phe(4-COOH)]G[Pro(cis-4-F)][Trp(βS-Me,4-F)][Aib]SW[Aib][hTyr]Q[Dab]G[X4]))",0.039
2,"C[C@@H](c1c[nH]c2cccc(F)c12)[C@@H]1NC(=O)[C@@H]2C[C@H](F)CN2C(=O)CNC(=O)[C@H](Cc2ccc(C(=O)O)cc2)NC(=O)[C@H](Cc2ccncc2)NC(=O)[C@H](Cc2ccc(-c3ccc(C(=O)O)cc3)cc2)NC(=O)[C@H]2[C@@H](Cc3ccncc3)CCN2C(=O)CNC(=O)[C@H](CCN)NC(=O)[C@H](CCC(N)=O)NC(=O)[C@H](CCc2ccc(O)cc2)NC(=O)[C@@](C)(CC(=O)O)NC(=O)[C@H](Cc2c[nH]c3ccccc23)NC(=O)[C@H](CO)NC(=O)C(C)(C)NC1=O [Example 219] (cyclo([Bip(4'-COOH)][4Pal][Phe(4-COOH)]G[Pro(cis-4-F)][Trp(βS-Me,4-F)][Aib]SW[d(αMeD)][hTyr]Q[Dab]G[X4]))",0.018
3,"C[C@@H](c1c[nH]c2cccc(F)c12)[C@@H]1NC(=O)[C@@H]2C[C@H](F)CN2C(=O)CNC(=O)[C@H](Cc2ccc(C(=O)O)cc2)NC(=O)[C@H](Cc2ccncc2)NC(=O)[C@H](Cc2ccc(-c3ccc(C(=O)N(C)C)cc3)cc2)NC(=O)[C@H]2C[C@@H](Cc3ccncc3)CN2C(=O)CNC(=O)[C@H](CCN)NC(=O)[C@H](CCC(N)=O)NC(=O)[C@H](Cc2cncnc2)NC(=O)[C@@](C)(CO)NC(=O)[C@H](Cc2c[nH]c3ccccc23)NC(=O)[C@H](CO)NC(=O)C(C)(C)NC1=O [Example 338] (cyclo([X17][4Pal][Phe(4-COOH)]G[Pro(cis-4-F)][Trp(βS-Me,4-F)][Aib]SW[d(αMeS)][Ala(pyrimidin-5-yl)]Q[Dab]G[dPro(4R-(4-pyridylmethyl))]))",0.018
